# Laboratory results published in ChEMBL document CHEMBL1138046, “Discovery of a new boron-containing antifungal agent, 5-fluoro-1,3-dihydro-1-hydroxy-2,1- benzoxaborole (AN2690), for the potential treatment of onychomycosis” (2006).
# What was measured:
# Cryptococcus neoformans = assay: Antifungal activity against Cryptococcus neoformans; assay type: functional
# Aspergillus fumigatus = assay: Antifungal activity against Aspergillus fumigatus; assay type: functional
# Trichophyton rubrum = assay: Antifungal activity against Trichophyton rubrum; assay type: functional
# Candida albicans = assay: Antifungal activity against Candida albicans; assay type: functional
# Trichophyton benhamiae = assay: Antifungal activity against Trichophyton mentagrophytes; assay type: functional, Arthroderma benhamiae
smiles,measurement,setting,value
OB1OCc2cccc(F)c21,MIC,Cryptococcus neoformans,32 µg/mL
same,MIC,Aspergillus fumigatus,4 µg/mL
same,MIC,Trichophyton rubrum,16 µg/mL
same,MIC,Candida albicans,32 µg/mL
same,MIC,Trichophyton benhamiae,16 µg/mL
c1ccc(B2OCc3ccccc32)cc1,MIC,Cryptococcus neoformans,8 µg/mL
same,MIC,Aspergillus fumigatus,4 µg/mL
same,MIC,Trichophyton rubrum,4 µg/mL
same,MIC,Candida albicans,4 µg/mL
same,MIC,Trichophyton benhamiae,4 µg/mL
CC1OB(O)c2ccc(F)cc21 (stereo not given),MIC,Cryptococcus neoformans,32 µg/mL
same,MIC,Aspergillus fumigatus,16 µg/mL
same,MIC,Trichophyton rubrum,32 µg/mL
same,MIC,Candida albicans,16 µg/mL
same,MIC,Trichophyton benhamiae,16 µg/mL
OB1OCc2ccc(F)cc21,MIC,Cryptococcus neoformans,32 µg/mL
same,MIC,Aspergillus fumigatus,8 µg/mL
same,MIC,Trichophyton rubrum,16 µg/mL
same,MIC,Candida albicans,16 µg/mL
same,MIC,Trichophyton benhamiae,32 µg/mL
OB1OCc2c(F)cccc21,MIC,Cryptococcus neoformans,32 µg/mL
same,MIC,Aspergillus fumigatus,32 µg/mL
same,MIC,Trichophyton rubrum,16 µg/mL
same,MIC,Candida albicans,64 µg/mL
same,MIC,Trichophyton benhamiae,16 µg/mL
Cc1cscc1B1OCc2cc(F)ccc21,MIC,Cryptococcus neoformans,1 µg/mL
same,MIC,Aspergillus fumigatus,1 µg/mL
same,MIC,Trichophyton rubrum,1 µg/mL
same,MIC,Candida albicans,1 µg/mL
same,MIC,Trichophyton benhamiae,2 µg/mL
OB1OCc2ccccc21 [BENZOXABOROLE],MIC,Cryptococcus neoformans,1 µg/mL
same,MIC,Aspergillus fumigatus,2 µg/mL
same,MIC,Trichophyton rubrum,8 µg/mL
same,MIC,Candida albicans,2 µg/mL
same,MIC,Trichophyton benhamiae,4 µg/mL
Fc1ccc2c(c1)CCOB2c1ccccc1,MIC,Cryptococcus neoformans,8 µg/mL
same,MIC,Aspergillus fumigatus,8 µg/mL
same,MIC,Trichophyton rubrum,8 µg/mL
same,MIC,Candida albicans,8 µg/mL
same,MIC,Trichophyton benhamiae,8 µg/mL
Fc1cccc(B2OCc3cc(F)ccc32)c1,MIC,Cryptococcus neoformans,1 µg/mL
same,MIC,Aspergillus fumigatus,1 µg/mL
same,MIC,Trichophyton rubrum,1 µg/mL
same,MIC,Candida albicans,0.5 µg/mL
same,MIC,Trichophyton benhamiae,2 µg/mL
Cc1ccc(B2OCc3cc(F)ccc32)cc1,MIC,Cryptococcus neoformans,0.5 µg/mL
same,MIC,Aspergillus fumigatus,0.5 µg/mL
same,MIC,Trichophyton rubrum,2 µg/mL
same,MIC,Candida albicans,0.5 µg/mL
same,MIC,Trichophyton benhamiae,2 µg/mL
Fc1ccc2c(c1)COB2c1ccccc1,MIC,Cryptococcus neoformans,2 µg/mL
same,MIC,Aspergillus fumigatus,2 µg/mL
same,MIC,Trichophyton rubrum,1 µg/mL
same,MIC,Candida albicans,0.5 µg/mL
same,MIC,Trichophyton benhamiae,2 µg/mL
OB1OCc2cc(C(F)(F)F)ccc21,MIC,Cryptococcus neoformans,16 µg/mL
same,MIC,Aspergillus fumigatus,8 µg/mL
same,MIC,Trichophyton rubrum,8 µg/mL
same,MIC,Candida albicans,16 µg/mL
same,MIC,Trichophyton benhamiae,8 µg/mL
Fc1ccc2c(c1)COB2c1cccc(Cl)c1,MIC,Cryptococcus neoformans,0.5 µg/mL
same,MIC,Aspergillus fumigatus,2 µg/mL
same,MIC,Trichophyton rubrum,4 µg/mL
same,MIC,Candida albicans,0.25 µg/mL
same,MIC,Trichophyton benhamiae,8 µg/mL
Cc1ccc2c(c1)COB2O,MIC,Cryptococcus neoformans,8 µg/mL
same,MIC,Aspergillus fumigatus,2 µg/mL
same,MIC,Trichophyton rubrum,8 µg/mL
same,MIC,Candida albicans,2 µg/mL
same,MIC,Trichophyton benhamiae,4 µg/mL
Fc1ccc(B2OCc3cc(F)ccc32)cc1,MIC,Cryptococcus neoformans,1 µg/mL
same,MIC,Aspergillus fumigatus,2 µg/mL
same,MIC,Trichophyton rubrum,4 µg/mL
same,MIC,Candida albicans,1 µg/mL
same,MIC,Trichophyton benhamiae,4 µg/mL
OCc1ccc2c(c1)COB2O,MIC,Cryptococcus neoformans,> 64 µg/mL
same,MIC,Aspergillus fumigatus,> 64 µg/mL
same,MIC,Trichophyton rubrum,64 µg/mL
same,MIC,Candida albicans,> 64 µg/mL
same,MIC,Trichophyton benhamiae,64 µg/mL
Fc1cccc(B2OCc3ccccc32)c1,MIC,Cryptococcus neoformans,4 µg/mL
same,MIC,Aspergillus fumigatus,8 µg/mL
same,MIC,Trichophyton rubrum,8 µg/mL
same,MIC,Candida albicans,4 µg/mL
same,MIC,Trichophyton benhamiae,16 µg/mL
OB1OCc2ccc3ccccc3c21,MIC,Cryptococcus neoformans,32 µg/mL
same,MIC,Aspergillus fumigatus,32 µg/mL
same,MIC,Trichophyton rubrum,4 µg/mL
same,MIC,Candida albicans,32 µg/mL
same,MIC,Trichophyton benhamiae,2 µg/mL
Fc1ccc2c(c1)COB2c1ccsc1,MIC,Cryptococcus neoformans,1 µg/mL
same,MIC,Aspergillus fumigatus,1 µg/mL
same,MIC,Trichophyton rubrum,1 µg/mL
same,MIC,Candida albicans,1 µg/mL
same,MIC,Trichophyton benhamiae,4 µg/mL
OB1OCCc2cc(F)ccc21,MIC,Cryptococcus neoformans,> 64 µg/mL
same,MIC,Aspergillus fumigatus,32 µg/mL
same,MIC,Trichophyton rubrum,32 µg/mL
same,MIC,Candida albicans,64 µg/mL
same,MIC,Trichophyton benhamiae,32 µg/mL
Fc1ccc2c(c1)COB2c1ccoc1,MIC,Cryptococcus neoformans,4 µg/mL
same,MIC,Aspergillus fumigatus,4 µg/mL
same,MIC,Trichophyton rubrum,4 µg/mL
same,MIC,Candida albicans,4 µg/mL
same,MIC,Trichophyton benhamiae,4 µg/mL
Fc1ccc2c(c1)COB2/C=C/c1ccccc1,MIC,Cryptococcus neoformans,0.5 µg/mL
same,MIC,Aspergillus fumigatus,1 µg/mL
same,MIC,Trichophyton rubrum,≤ 1 µg/mL
same,MIC,Candida albicans,0.5 µg/mL
same,MIC,Trichophyton benhamiae,2 µg/mL
C(=C\c1ccccc1)/B1OCc2ccccc21,MIC,Cryptococcus neoformans,4 µg/mL
same,MIC,Aspergillus fumigatus,4 µg/mL
same,MIC,Trichophyton rubrum,8 µg/mL
same,MIC,Candida albicans,2 µg/mL
same,MIC,Trichophyton benhamiae,8 µg/mL
N#Cc1ccc2c(c1)COB2O,MIC,Cryptococcus neoformans,8 µg/mL
same,MIC,Aspergillus fumigatus,16 µg/mL
same,MIC,Trichophyton rubrum,16 µg/mL
same,MIC,Candida albicans,8 µg/mL
same,MIC,Trichophyton benhamiae,16 µg/mL
OB1OCc2cc(F)c(F)cc21,MIC,Cryptococcus neoformans,2 µg/mL
same,MIC,Aspergillus fumigatus,2 µg/mL
same,MIC,Trichophyton rubrum,4 µg/mL
same,MIC,Candida albicans,4 µg/mL
same,MIC,Trichophyton benhamiae,4 µg/mL
Cc1cc(C2CCCCC2)n(O)c(=O)c1 [CICLOPIROX],MIC,Cryptococcus neoformans,0.5 µg/mL
same,MIC,Aspergillus fumigatus,1 µg/mL
same,MIC,Trichophyton rubrum,0.5 µg/mL
same,MIC,Candida albicans,0.5 µg/mL
same,MIC,Trichophyton benhamiae,0.5 µg/mL
Fc1ccc(B2OCc3ccccc32)cc1,MIC,Cryptococcus neoformans,2 µg/mL
same,MIC,Aspergillus fumigatus,2 µg/mL
same,MIC,Trichophyton rubrum,8 µg/mL
same,MIC,Candida albicans,4 µg/mL
same,MIC,Trichophyton benhamiae,4 µg/mL
C=CB1OCc2cc(F)ccc21,MIC,Cryptococcus neoformans,4 µg/mL
same,MIC,Aspergillus fumigatus,2 µg/mL
same,MIC,Trichophyton rubrum,4 µg/mL
same,MIC,Candida albicans,1 µg/mL
same,MIC,Trichophyton benhamiae,2 µg/mL
c1ccc(B2OCCc3ccccc32)cc1,MIC,Cryptococcus neoformans,16 µg/mL
same,MIC,Aspergillus fumigatus,16 µg/mL
same,MIC,Trichophyton rubrum,8 µg/mL
same,MIC,Candida albicans,8 µg/mL
same,MIC,Trichophyton benhamiae,8 µg/mL
Clc1cccc(B2OCc3ccccc32)c1,MIC,Cryptococcus neoformans,4 µg/mL
same,MIC,Aspergillus fumigatus,8 µg/mL
same,MIC,Trichophyton rubrum,16 µg/mL
same,MIC,Candida albicans,8 µg/mL
same,MIC,Trichophyton benhamiae,8 µg/mL
Cc1cccc(B2OCc3cc(F)ccc32)c1,MIC,Cryptococcus neoformans,0.5 µg/mL
same,MIC,Aspergillus fumigatus,0.5 µg/mL
same,MIC,Trichophyton rubrum,2 µg/mL
same,MIC,Candida albicans,1 µg/mL
same,MIC,Trichophyton benhamiae,4 µg/mL
OB1OCc2cc(F)ccc21 [TAVABOROLE],MIC,Cryptococcus neoformans,0.25 µg/mL
same,MIC,Aspergillus fumigatus,0.25 µg/mL
same,MIC,Trichophyton rubrum,1 µg/mL
same,MIC,Candida albicans,0.5 µg/mL
same,MIC,Trichophyton benhamiae,1 µg/mL
Fc1ccc2c(c1)COB2c1cccnc1,MIC,Cryptococcus neoformans,16 µg/mL
same,MIC,Aspergillus fumigatus,16 µg/mL
same,MIC,Trichophyton rubrum,16 µg/mL
same,MIC,Candida albicans,4 µg/mL
same,MIC,Trichophyton benhamiae,32 µg/mL
OB1OCc2cc(Cl)ccc21 [AN-2718],MIC,Cryptococcus neoformans,2 µg/mL
same,MIC,Aspergillus fumigatus,1 µg/mL
same,MIC,Trichophyton rubrum,1 µg/mL
same,MIC,Candida albicans,1 µg/mL
same,MIC,Trichophyton benhamiae,2 µg/mL
